For data set [1], the system named is human cervical cancer cell Hela. Description: MTT anticancer assay, Hela. The class given is cell-based. Particulars: MTT, 48 h exposure, mean ± SD, read-out: IC50 Hela. Here is the method: (§1) The MTT was purchased from Sigma. Cell Cycle Analysis Kit and Apoptosis Analysis Kit were purchased from Bestbio (China). Mitochondrial membrane potential assay kit with JC-1 was purchased from Beyotime (China). All the materials were used as received without further purification unless noted specifically. The cell culture was maintained on DMEM medium (Hyclone, US) supplemented with 10% fetal bovine serum (Sijiqing, China), 100 U/mL penicillin and 100 µg/mL streptomycin in 25-cm^2 culture flasks at 37 °C humidified atmosphere with 5% CO2. Drugs were dissolved in DMSO and filtered through 0.22-µm pore-size filter units before addition to cell line appropriate media. When tumor cells were grown to log phase, diluting to 5 × 10^4 cells mL^−1 with the complete medium, 100 µL of the obtained cell suspension was added to each well of 96-well culture plates. The subsequent incubation was performed at 37 °C, 5% CO2 atmosphere for 48 h before subjecting to anti-proliferation assessment. After 48-h exposure period, 20 µL of PBS containing 5 mg·mL^−1 of MTT was added to each well. After 4 h, the medium was replaced by 150 µL DMSO to dissolve the purple formazan crystals produced. […] The data represented the mean of three experiments in triplicate and were expressed as means ± SD.
In general terms: Tetrazolium dyes change colour on reduction, which living cells bring about.

Data set [2] concerns human gastric cancer cells SGC-7901. The experiment in a line: MTT anticancer assay, SGC-7901. The class given is cell-based. On the procedure:
as §1

Data set [3] is described as follows: Octanol water partition coefficient, shake flask. The class given is physicochemical. Particulars: octanol/PBS pH 7.4, 37 °C. On the procedure:
Octanole water partition coefficients was measured by the method of shake flask with slight modification. The aqueous phase was replaced by PBS (pH 7.4). First, the phase of octanol and the aqueous were saturated with each other. Then, the mixture containing title compounds was shaken at 37 °C. After 24 h, the mixture was centrifuged at 4000 rpm for 30 min, followed by the measured with ultraviolet spectrophotometer. At last, logP values were calculated.

A further data set has as its system SGC-7901 cells. The experiment in a line: Annexin V-FITC/PI apoptosis analysis by flow cytometry. The class given is cell-based, human. Particulars: 48 h, control 3.06%. On the procedure: Apoptosis was detected by flow cytometric analysis of annexin V staining. Annexin V-FITC/PI assay was performed according to previously described. First, adherent SGC-7901 cells were harvested and suspended in the annexin-binding buffer (1 × 10^6 cells/mL). Then, cells were incubated with V-FITC buffer and incubated with annexin V-FITC for 15 min and then stained by PI for 5 min at 4 °C in the dark, immediately analyzed by flow cytometry. The data are presented as biparametric dot plots showing PI red fluorescence versus annexin V-FITC green fluorescence.

Another data set deals with PARP. The experiment in a line: Western blot, PARP. The class given is cell-based, human. Particulars: SGC-7901, 1, 2 and 4 μM, 48 h. Here is the method:
(§2) An equivalent volume of 5 × SDS-sample buffer was added to cell lysates and boiled for 10 min. The supernatants were subjected to electrophoresis on SDS-PAGE gels and transferred to PVDF membrane by using a Bio-Rad apparatus. Membranes were blocked for 3 h at room temperature in TBST containing 5% non-fat dried milk and probed overnight at 4 °C with antibodies. CyclinD1 (abcam, ab134175, 1:10000), CDC25A (abcam, ab156574, 1:1000), CDC25C (abcam, ab32051, 1:1000), bcl-2 (abcam, ab32124,1:1000), bax (abcam, ab32503, 1:1000), PARP (abcam, ab191217, 1:1000), γH2AX (abcam, ab81299, 1:5000), dyskerin (abcam, ab156877, 1:1000), NHP2 (abcam, ab180498, 1:1000), NOP10 (abcam, ab133726, 1:1000) antibody was performed with rabbit primary antibody. Otherwise, β-actin (ZSGB-BIO, 1:1000) detection was performed with mouse primary antibody which was served as internal controls. Protein bands of β-actin was visualised using peroxidase-labeled goat anti-mouse and others were visualised using peroxidase-labeled goat anti-rabbit secondary antibody (1:5000 dilution, 1 h, room temperature), and the protein expression signals were detected by the BeyoECL Plus (Beyotime).
In general terms: In western blotting, separated proteins are transferred to a membrane and probed.

In the next data set the test system is CDC25A. Description: Western blot, CDC25A. Format: cell-based, human. Particulars: SGC-7901, 1, 2 and 4 μM, 48 h. Here is the method:
as §2

A further data set deals with NOP10. Description: Western blot, NOP10. Particulars: SGC-7901, 1, 2 and 4 μM, 48 h. Format: cell-based, human. Here is the method: as §2
The next data set has as its target T1, telomerase (Homo sapiens, UniProt O14746).
T1 construct: endogenous in cells; host or cells: SGC-7901
The experiment in a line: Telomerase activity assay (TRAP-PCR-ELISA). Format: biochemical. Particulars: SGC-7901 cells extracts, 24-h treatment, mean ± SD. Here is the method: Inhibit of telomerase activity was tested using the TRAP-PCR-ELISA assay. In detail, the SGC-7901 cells were firstly maintained in DMEM medium (GIBCO, New York) supplemented with 10% fetal bovineserum (GIBCO, NewYork), streptomycin (0.1 mg/mL) and penicillin (100 IU/mL) at 37 °C in a humidified atmosphere containing 5% CO2. After trypsinisation, 5 × 10^4 cultured cells in logarithmic growth were seeded into T25 flasks (Corning, New York) and cultured to allow to adherence. The cells were then incubated with Staurosporine (Santa Cruz, Santa Cruz) and the drugs with a series of concentration as 60, 20, 6.67, 2.22, 0.74, 0.25 and 0.082 l g/mL, respectively. After 24-h treatment, the cells were harvested by cell scraper orderly following by washed once with PBS. The cells were lysed in 150 µL RIPA cell lysis buffer (Santa Cruz, Santa Cruz) and incubated on ice for 30 min. The cellular supernatants were obtained via centrifugation at 12,000 g for 20 min at 4 °C and stored at −80 °C. The TRAP-PCR-ELISA assay was performed using a telomerase detection kit (Roche, Basel, Switzerland) according to the manufacturer’s protocol. In brief, 2 µL of cell extracts were mixed with 48 µL TRAP reaction mixtures. PCR was then initiated at 94 °C, 120 s for predenaturation and performed using 35 cycles each consisting of 94 °C for 30 s, 50 °C for 30 s, 72 °C for 90 s. Then 20 µL of PCR products were hybridised to a digoxigenin (DIG)-labeled telomeric repeat specific detection probe. And the PCR products were immobilised via the biotin-labeled primer to a streptavidin-coated microtiter plate subsequently. The immobilised DNA fragment were detected with a peroxidase-conjugated anti-DIG antibody and visualised following addition of the stop regent. The microtitre plate was assessed on TECAN Infinite M200 microplate reader (Mannedorf, Switzerland) at a wavelength of 490 nm, and the final value were presented as mean ± SD.

The values below come from PMC6104605, “Discovery of new chromen-4-one derivatives as telomerase inhibitors through regulating expression of dyskerin” (Journal of Enzyme Inhibition and Medicinal Chemistry, 2018).

T1 sequence (O14746 whole entry): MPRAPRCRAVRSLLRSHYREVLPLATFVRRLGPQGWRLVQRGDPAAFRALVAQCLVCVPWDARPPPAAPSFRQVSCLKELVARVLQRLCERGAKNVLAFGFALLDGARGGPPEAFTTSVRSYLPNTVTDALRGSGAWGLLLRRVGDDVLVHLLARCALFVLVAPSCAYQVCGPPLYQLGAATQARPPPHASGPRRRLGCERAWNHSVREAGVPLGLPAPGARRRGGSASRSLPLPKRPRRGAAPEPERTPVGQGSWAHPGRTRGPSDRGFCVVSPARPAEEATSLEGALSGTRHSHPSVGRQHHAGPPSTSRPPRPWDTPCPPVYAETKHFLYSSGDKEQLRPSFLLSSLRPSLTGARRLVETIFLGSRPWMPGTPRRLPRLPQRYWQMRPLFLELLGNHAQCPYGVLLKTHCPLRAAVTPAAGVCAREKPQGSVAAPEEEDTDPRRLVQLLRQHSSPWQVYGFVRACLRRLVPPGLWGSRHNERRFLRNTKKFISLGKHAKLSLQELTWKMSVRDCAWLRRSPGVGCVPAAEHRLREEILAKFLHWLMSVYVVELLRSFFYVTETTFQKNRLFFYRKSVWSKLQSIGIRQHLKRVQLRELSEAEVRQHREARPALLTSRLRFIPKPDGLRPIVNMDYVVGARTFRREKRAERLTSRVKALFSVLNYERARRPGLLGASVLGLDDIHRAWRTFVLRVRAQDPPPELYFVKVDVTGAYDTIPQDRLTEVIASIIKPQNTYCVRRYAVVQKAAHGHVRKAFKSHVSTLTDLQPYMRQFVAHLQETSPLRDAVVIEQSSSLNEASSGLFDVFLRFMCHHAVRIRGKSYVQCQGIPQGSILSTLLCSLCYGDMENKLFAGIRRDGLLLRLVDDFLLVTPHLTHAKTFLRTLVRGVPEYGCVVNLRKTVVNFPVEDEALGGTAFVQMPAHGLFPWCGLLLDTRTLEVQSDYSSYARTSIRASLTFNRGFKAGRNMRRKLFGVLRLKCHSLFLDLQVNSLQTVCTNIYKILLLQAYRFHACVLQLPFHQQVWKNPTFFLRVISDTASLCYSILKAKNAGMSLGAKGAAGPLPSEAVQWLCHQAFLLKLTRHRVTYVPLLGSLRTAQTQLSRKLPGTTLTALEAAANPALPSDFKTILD
T1 sequence (O60832 whole entry partner): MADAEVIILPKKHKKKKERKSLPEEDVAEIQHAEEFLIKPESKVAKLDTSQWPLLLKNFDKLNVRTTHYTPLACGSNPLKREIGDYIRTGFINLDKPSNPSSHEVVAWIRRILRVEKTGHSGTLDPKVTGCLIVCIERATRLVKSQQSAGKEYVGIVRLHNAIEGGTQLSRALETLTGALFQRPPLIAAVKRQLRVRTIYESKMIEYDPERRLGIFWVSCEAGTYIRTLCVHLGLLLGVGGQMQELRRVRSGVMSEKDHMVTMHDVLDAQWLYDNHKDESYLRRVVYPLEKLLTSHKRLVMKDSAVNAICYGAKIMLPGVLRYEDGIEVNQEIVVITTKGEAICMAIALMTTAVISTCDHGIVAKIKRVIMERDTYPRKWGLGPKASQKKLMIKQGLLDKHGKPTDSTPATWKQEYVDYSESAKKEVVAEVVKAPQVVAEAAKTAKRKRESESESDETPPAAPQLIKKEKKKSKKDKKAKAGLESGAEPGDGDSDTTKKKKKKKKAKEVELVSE
T1 sequence (Q9NX24 whole entry partner): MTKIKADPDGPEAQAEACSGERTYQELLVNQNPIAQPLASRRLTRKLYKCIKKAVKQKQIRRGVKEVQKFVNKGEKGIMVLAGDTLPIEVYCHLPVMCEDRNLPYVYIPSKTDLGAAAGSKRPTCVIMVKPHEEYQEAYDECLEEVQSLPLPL
T1 sequence (Q9NPE3 whole entry partner): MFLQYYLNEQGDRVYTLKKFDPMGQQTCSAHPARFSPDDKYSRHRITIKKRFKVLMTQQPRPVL
T1 sequence (Q9NY12 whole entry partner): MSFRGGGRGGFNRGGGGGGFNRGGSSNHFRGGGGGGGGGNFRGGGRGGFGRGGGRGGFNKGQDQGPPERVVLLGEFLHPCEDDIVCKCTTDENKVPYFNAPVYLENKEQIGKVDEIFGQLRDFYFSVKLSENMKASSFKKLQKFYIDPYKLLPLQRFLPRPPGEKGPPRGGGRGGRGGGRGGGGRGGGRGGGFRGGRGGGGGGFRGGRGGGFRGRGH

The term IC50 denotes the midpoint of a concentration-inhibition curve. Consider `COc1cc(OC)c2c(=O)c(OCCCCN3CCN(C(=O)c4ccncc4)CC3)c(-c3cc(OC)c(OC)c(OC)c3)oc2c1` [Compound 5i, 3-(4-(4-isonicotinoylpiperazin-1-yl)butoxy)-5,7-dimethoxy-2-(3,4,5-trimethoxyphenyl)-4H-chromen-4-one], for which the 50% inhibitory concentration (IC50) in data set [1] turned out to be 1020 ± 210 nM; in data set [2] (Homo sapiens, SGC-7901, MTT, 48 h exposure, mean ± SD), 1350 ± 170 nM; against telomerase, 890 ± 170 nM. Also, the “activity against SGC-7901 cells (in words)” value in data set [2] was “good activity”. In addition, the logP at 24 h in data set [3] (octanol/PBS (pH 7.4), pH 7.4, shake flask, read-out: Log p (octanole water partition coefficient)) amounted to 3.01. In data set [3] (shake flask, 24 h), the “Log p (octanole water partition coefficient)” value amounted to 2.81. The Apoptosis ratio in the data set with SGC-7901 cells (SGC-7901, 1 µM) is recorded as 12.47%; with SGC-7901 cells (SGC-7901, 2 µM) it was 26.3%; in the data set with SGC-7901 cells (SGC-7901, 4 µM) it was 48.7%. The “PARP (western blot)” value in the data set on PARP is on record as “reduced”. For the same compound, in the data set on CDC25A, the “expression of CDC25A (western blot)” value is “significantly decrease”. Moreover, in the data set on NOP10, the “NOP10 protein level (western blot)” value was “no significant changes”.
